#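 Results reflect a 48-hour exposure of cells in 96-well plates to compound at five concentrations. GI50 marks 50% less growth.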 The source made the active and inactive calls. Rule as the data show it: active = GI50 up to about 1.1 µM and inactive = higher.
# Tests used:
# Experiment in all cases: DTP human tumour cell line panel, 48 h
# OVCAR-8 = test system: OVCAR-8
# MDA-MB-231 = test system: MDA-MB-231
# SNB-19 = test system: SNB-19
# Hs-578T = test system: Hs-578T
# BT-549 = test system: BT-549
# SR = test system: SR
# M14 = test system: M14
# PC-3 = test system: PC-3
# T47D = test system: T47D
# SF-539 = test system: SF-539
# HCT-116 = test system: HCT-116
# MDA-MB-435 = test system: MDA-MB-435
# DLD-1 = test system: DLD-1
# SNB-78 = test system: SNB-78
# DMS-114 = test system: DMS-114
# CAKI-1 = test system: CAKI-1
# DU-145 = test system: DU-145
# TK-10 = test system: TK-10
# MDA-N = test system: MDA-N
# HL-60 = test system: HL-60
# HOP-18 = test system: HOP-18
# NCI-H226 = test system: NCI-H226
# DMS-273 = test system: DMS-273
# M19-MEL = test system: M19-MEL
# XF498 = test system: XF498
# KM-20L2 = test system: KM-20L2
# 786-0 = test system: 786-0
# SK-MEL-28 = test system: SK-MEL-28
# IGROV-1 = test system: IGROV-1
# HCT-15 = test system: HCT-15
# A498 = test system: A498
# LXFL 529 = test system: LXFL 529
# K562 = test system: K562
# HOP-92 = test system: HOP-92
# SF-295 = test system: SF-295
# CCRF-CEM = test system: CCRF-CEM
# HT-29 = test system: HT-29
# UACC-62 = test system: UACC-62
# EKVX = test system: EKVX
# SK-OV-3 = test system: SK-OV-3
# LOX IMVI = test system: LOX IMVI
# COLO 205 = test system: COLO 205
# NCI-H460 = test system: NCI-H460
# SK-MEL-5 = test system: SK-MEL-5
# RPMI-8226 = test system: RPMI-8226
# ACHN = test system: ACHN
# NCI-H522 = test system: NCI-H522
# SN12C = test system: SN12C
# UO-31 = test system: UO-31
# U-251 = test system: U-251
# A549 = test system: A549
# SF-268 = test system: SF-268
# MOLT-4 = test system: MOLT-4
# RXF 393 = test system: RXF 393
# SW-620 = test system: SW-620
# NCI-H23 = test system: NCI-H23
smiles,measurement,setting,value
CO[C@H](C(=O)[C@@H](O)[C@@H](C)O)[C@@H]1Cc2cc3cc(OC4CC(OC5CC(O)C(O)C(C)O5)C(O)C(C)O4)c(C)c(O)c3c(O)c2C(=O)[C@H]1OC1CC(OC2CC(OC3CC(C)(O)C(O)C(C)O3)C(O)C(C)O2)C(O)C(C)O1 (stereo not given in full),GI50,OVCAR-8,0.176 µM (active)
same,GI50,MDA-MB-231,0.0495 µM (active)
same,GI50,SNB-19,0.125 µM (active)
same,GI50,Hs-578T,0.00331 µM (active)
same,GI50,BT-549,0.00689 µM (active)
same,GI50,SR,0.00526 µM (active)
same,GI50,M14,0.0196 µM (active)
same,GI50,PC-3,0.0284 µM (active)
same,GI50,T47D,0.00406 µM (active)
same,GI50,SF-539,0.125 µM (active)
same,GI50,HCT-116,0.125 µM (active)
same,GI50,MDA-MB-435,0.0197 µM (active)
same,GI50,DLD-1,0.334 µM (active)
same,GI50,SNB-78,0.395 µM (active)
same,GI50,DMS-114,0.348 µM (active)
same,GI50,CAKI-1,0.125 µM (active)
same,GI50,DU-145,0.0438 µM (active)
same,GI50,TK-10,0.129 µM (active)
same,GI50,MDA-N,0.0128 µM (active)
same,GI50,HL-60,0.128 µM (active)
same,GI50,HOP-18,0.125 µM (active)
same,GI50,NCI-H226,0.125 µM (active)
same,GI50,DMS-273,0.348 µM (active)
same,GI50,M19-MEL,0.314 µM (active)
same,GI50,XF498,0.314 µM (active)
same,GI50,KM-20L2,0.348 µM (active)
same,GI50,786-0,0.00927 µM (active)
Cc1nc2c(n1C)C(=O)c1nc(CBr)[nH]c(=O)c1C2=O,GI50,OVCAR-8,> 100 µM (inactive)
same,GI50,SK-MEL-28,> 100 µM (inactive)
same,GI50,SNB-19,> 100 µM (inactive)
same,GI50,IGROV-1,> 100 µM (inactive)
same,GI50,HCT-15,> 100 µM
same,GI50,M14,35.9 µM (inactive)
same,GI50,A498,> 100 µM (inactive)
same,GI50,SF-539,> 100 µM (inactive)
same,GI50,LXFL 529,> 100 µM (inactive)
same,GI50,K562,> 100 µM (inactive)
same,GI50,HCT-116,> 100 µM (inactive)
same,GI50,HOP-92,> 100 µM (inactive)
same,GI50,SF-295,0.938 µM (active)
same,GI50,DLD-1,> 100 µM (inactive)
same,GI50,CCRF-CEM,> 100 µM (inactive)
same,GI50,HT-29,39.4 µM (inactive)
same,GI50,DMS-114,75.9 µM (inactive)
same,GI50,UACC-62,> 100 µM (inactive)
same,GI50,EKVX,24.4 µM (inactive)
same,GI50,TK-10,> 100 µM (inactive)
same,GI50,SK-OV-3,75.7 µM (inactive)
same,GI50,LOX IMVI,46.5 µM (inactive)
same,GI50,COLO 205,51.5 µM (inactive)
same,GI50,HL-60,38.7 µM (inactive)
same,GI50,HOP-18,> 100 µM (inactive)
same,GI50,NCI-H460,> 100 µM (inactive)
same,GI50,SK-MEL-5,20.3 µM (inactive)
same,GI50,RPMI-8226,> 100 µM (inactive)
same,GI50,ACHN,> 100 µM (inactive)
same,GI50,DMS-273,> 100 µM (inactive)
same,GI50,NCI-H522,> 100 µM (inactive)
same,GI50,SN12C,> 100 µM (inactive)
same,GI50,UO-31,> 100 µM (inactive)
same,GI50,U-251,> 100 µM (inactive)
same,GI50,A549,> 100 µM (inactive)
same,GI50,M19-MEL,> 100 µM (inactive)
same,GI50,SF-268,> 100 µM (inactive)
same,GI50,XF498,> 10 µM (inactive)
same,GI50,KM-20L2,> 100 µM (inactive)
same,GI50,MOLT-4,> 100 µM (inactive)
same,GI50,RXF 393,> 100 µM (inactive)
same,GI50,SW-620,> 100 µM (inactive)
same,GI50,NCI-H23,> 100 µM (inactive)

# Reference: ChEMBL document CHEMBL1201862, “PubChem BioAssay data set” (2004)
